Assay results taken from patent US20230285323A1, “ESKETAMINE-SUSPENSION-TTS” (LTS LOHMANN THERAPIE-SYSTEME AG, priority 2020, published 2023).

Experiment: Saturation concentration (solubility) of ketamine in silicone pressure sensitive adhesive

CNC1(c2ccccc2Cl)CCCCC1=O (racemic) [ketamine, (RS)-(±)-2-(2-chlorophenyl)-2-(methylamino)cyclohexan-1-one]
Solubility of ketamine in the silicone pressure sensitive adhesive: not more than 1 wt.-%
